The results in this text go back to article PMC10787067, “EBF2 Links KMT2D‐Mediated H3K4me1 to Suppress Pancreatic Cancer Progression via Upregulating KLLN” (Advanced Science, 2023).

Residue numbers refer to the chain shown, from its start. Names and notes keep the numbering of the source.

In experiment [1] the test system is EBF2. The experiment in a line: Peptide pull-down with SW1990 and PANC-1 protein extracts. It is filed as binding, Human. Conditions: biotin-labeled peptides, protein extracts from SW1990 and PANC-1 cells; in vitro; Figure 1B. As to the method:
Unmodified histone 3 (H3), H3K4me1 peptides were incubated with nuclear extract of SW1990 cells, separated by SDS‐PAGE gel, and subjected to mass spectrometry. Factors specifically associating with H3K4me1 were screened by peptide pulldown coupled with mass spectrometry analysis. Mass spectrometry‐based proteomic analysis yielded a plethora of putative H3K4me1‐associated proteins, including many known histone or DNA modifiers, readers, and chromatin remodelers (Table S1, Supporting Information). Given that KMT2D executes its antitumor function via catalyzing the formation of H3K4me1 in pancreatic cancer, we explored the genes associated with H3K4me1.
The product was separated by sodium dodecyl sulfate‐polyacrylamide gel electrophoresis (SDS‐PAGE) with silver staining. Protein bands of interest were excised and subjected to electrospray‐ion trap tandem mass spectrometry (LCQ‐Deca, Finnigan).

Experiment [2] deals with T1, His‐EBF2 (Homo sapiens, UniProt Q9HAK2).
T1 construct: His‐EBF2 plasmid was constructed by inserting the CDS of EBF2 into PET‐28a vector; His; made in house; host or cells: E. coli BL21 (DE3)
T1 sequence (Q9HAK2 1-575): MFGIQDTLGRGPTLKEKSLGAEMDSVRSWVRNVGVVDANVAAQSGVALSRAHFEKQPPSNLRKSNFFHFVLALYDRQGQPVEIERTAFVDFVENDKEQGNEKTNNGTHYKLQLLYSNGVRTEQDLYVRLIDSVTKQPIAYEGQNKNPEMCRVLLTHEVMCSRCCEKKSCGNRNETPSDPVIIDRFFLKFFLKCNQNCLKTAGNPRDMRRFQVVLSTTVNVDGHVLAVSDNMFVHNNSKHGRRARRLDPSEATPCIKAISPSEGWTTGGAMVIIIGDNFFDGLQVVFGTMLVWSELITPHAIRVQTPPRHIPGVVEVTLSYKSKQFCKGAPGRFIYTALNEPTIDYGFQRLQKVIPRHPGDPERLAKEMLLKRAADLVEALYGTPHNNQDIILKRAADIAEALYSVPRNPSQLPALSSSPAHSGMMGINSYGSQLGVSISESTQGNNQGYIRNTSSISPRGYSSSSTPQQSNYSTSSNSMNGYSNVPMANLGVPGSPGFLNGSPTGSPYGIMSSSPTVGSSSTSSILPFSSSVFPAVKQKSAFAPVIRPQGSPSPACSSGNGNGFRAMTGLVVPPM
The experiment in a line: Peptide pull-down with purified His-EBF2 fusion protein. It is filed as binding. Conditions: purified His-EBF2 expressed in E. coli; Figure 1C.
Experimental: The CDS region of EBF2 gene was inserted into pET‐28a plasmid to express recombinant His‐tagged EBF2 fusion protein (His‐EBF2) in E. coli (Figure 1C).
His‐EBF2 plasmid was constructed by inserting the CDS of EBF2 into PET‐28a vector, transformed into E. coli BL21 (DE3), and cultured with isopropyl‐β‐D‐thiogalactoside (IPTG; Beyotime) at 16 °C for 12 h, until the optical density (OD600) reached 0.5–0.6. BL21 cells were collected and sonicated in cold PBS buffer, and His‐fusion proteins were purified with High Affinity Nickel beads (Genscript, Nanjing, China). The purity of His‐fusion proteins was evaluated by SDS‐PAGE.

The test system of experiment [3] is His‐EBF2 fusion protein. The experiment in a line: Isothermal titration calorimetry (ITC). The experiment is classed as binding. As to conditions: Figure 1E. As to the method:
His‐EBF2 plasmid was constructed by inserting the CDS of EBF2 into PET‐28a vector, transformed into E. coli BL21 (DE3), and cultured with isopropyl‐β‐D‐thiogalactoside (IPTG; Beyotime) at 16 °C for 12 h, […]. BL21 cells were collected and sonicated in cold PBS buffer, and His‐fusion proteins were purified with High Affinity Nickel beads (Genscript, Nanjing, China). The purity of His‐fusion proteins was evaluated by SDS‐PAGE.
A MicroCal ITC‐200 system (Malvern Instruments Ltd., UK) was used for ITC assay. Briefly, the synthesized peptides (Genscript) and proteins were all subjected to extensive dialysis against PBS. Peptides at a concentration of 1 mM were loaded into the ITC syringe, and proteins at a concentration of 100 µM into the ITC cell. Then, every 2 µL of peptide was automatically injected into the cell at 25 °C. The results of binding isotherms were analyzed using the Origin 7.0 software package (Origin Lab).
(ITC needs no label: the signal is the heat of the interaction.)

The target in experiment [4] is recombinant His-tagged EBF2 fusion protein (human) (UniProt Q9HAK2). The experiment in a line: MST; NT-647-NHS-labelled EBF2 at 100 nM in PBS with 0.05% Tween-20, pH 7.4; peptides 10 nM to 500 uM; Monolith NT.115.
Experiment [5] concerns H3K4me1. The experiment can be described thus: Co-IP of Flag-tagged EBF2-WT or EBF2-H239A with H3K4me1 in SW1990 cells. It is filed as binding, Human. Conditions: Co-IP on SW1990 cells; Figure S1B. As to the method:
Co‐immunoprecipitation assay was performed as described previously.^[ [61] ^] Briefly, SW1990 cells were transfected with indicated constructs or treated with GSK‐LSD1, washed with cold phosphate buffered saline (PBS), and lysed with cold cell lysis buffer. Then, the lysates were incubated with appropriate specific antibodies or normal rabbit IgG at 4 °C overnight in constant rotation, followed by the addition of protein A/G Sepharose beads and incubation for 2 h at 4 °C. The beads were then washed five times by the lysis buffer. Bead‐bound proteins were resolved by SDS‐PAGE and detected by immunoblotting using indicated antibodies.

Turning to `CNCCCC[C@H](NC(=O)[C@@H](NC(=O)[C@H](CCCNC(=N)N)NC(=O)[C@H](C)N)[C@@H](C)O)C(=O)N[C@@H](CCC(N)=O)C(=O)N[C@H](C(=O)N[C@@H](C)C(=O)N[C@@H](CCCNC(=N)N)C(=O)N[C@@H](CCCCN)C(=O)N[C@@H](CO)C(=O)N[C@H](C(=O)NCC(=O)NCC(=O)N[C@@H](CCCCN)C(=O)N[C@@H](C)C(=O)N1CCC[C@H]1C(=O)N[C@@H](CCCNC(=N)N)C(=O)N[C@@H](CCCCN)C(=O)N[C@@H](CCC(N)=O)C(=O)O)[C@@H](C)O)[C@@H](C)O` [H3K4me1], the “preferential binding of EBF2 to peptide” value in experiment [1] is “preferential binding of EBF2 to H3K4me1 over H3K4me3”. Besides, the “pull-down of purified His-EBF2 by peptide” value in experiment [2] was “pulled down by H3K4me1 peptide”. In addition, in experiment [3], the “affinity of His-EBF2 to peptide, in words” value was “strong affinity”.

As for “H3K4me1 peptide (C-terminal biotin-tagged 19 amino acid N-terminal peptide of histone H3, mono-methylated on Lys 4) (from UniProt P68431 2-20)”, in experiment [4], the equilibrium dissociation constant (Kd) was 7.37 µM.

B1: EBF2‐H239A: Flag-tagged EBF2-H239A; H239 is the site for H3K4me1 binding to EBF2 protein (protein)
chain: T1 sequence (Q9HAK2 1-575) with H239A
B1: in experiment [5], the “ability to bind H3K4me1 compared with EBF2-WT” value is recorded as “significantly weaker than that of EBF2‐WT”.

What is called Kd is the free concentration of one partner at which half of the binding sites on the other are occupied at equilibrium, for simple one-to-one binding.
